Laboratory results taken from patent US12187723B2 (BRISTOL-MYERS SQUIBB COMPANY, priority 2019, dated 2025).

Assays:
human TLR9 = target: T1, human TLR9 (Homo sapiens, UniProt Q9NR96); test: TLR9 inhibition reporter assay (HEK-Blue SEAP); type: cell-based; conditions: HEK-Blue cells overexpressing human TLR9, ODN2006 5 nM, 22 hour incubation
T1 construct: host or cells: HEK-Blue cells
T1 sequence (Q9NR96 26-1032): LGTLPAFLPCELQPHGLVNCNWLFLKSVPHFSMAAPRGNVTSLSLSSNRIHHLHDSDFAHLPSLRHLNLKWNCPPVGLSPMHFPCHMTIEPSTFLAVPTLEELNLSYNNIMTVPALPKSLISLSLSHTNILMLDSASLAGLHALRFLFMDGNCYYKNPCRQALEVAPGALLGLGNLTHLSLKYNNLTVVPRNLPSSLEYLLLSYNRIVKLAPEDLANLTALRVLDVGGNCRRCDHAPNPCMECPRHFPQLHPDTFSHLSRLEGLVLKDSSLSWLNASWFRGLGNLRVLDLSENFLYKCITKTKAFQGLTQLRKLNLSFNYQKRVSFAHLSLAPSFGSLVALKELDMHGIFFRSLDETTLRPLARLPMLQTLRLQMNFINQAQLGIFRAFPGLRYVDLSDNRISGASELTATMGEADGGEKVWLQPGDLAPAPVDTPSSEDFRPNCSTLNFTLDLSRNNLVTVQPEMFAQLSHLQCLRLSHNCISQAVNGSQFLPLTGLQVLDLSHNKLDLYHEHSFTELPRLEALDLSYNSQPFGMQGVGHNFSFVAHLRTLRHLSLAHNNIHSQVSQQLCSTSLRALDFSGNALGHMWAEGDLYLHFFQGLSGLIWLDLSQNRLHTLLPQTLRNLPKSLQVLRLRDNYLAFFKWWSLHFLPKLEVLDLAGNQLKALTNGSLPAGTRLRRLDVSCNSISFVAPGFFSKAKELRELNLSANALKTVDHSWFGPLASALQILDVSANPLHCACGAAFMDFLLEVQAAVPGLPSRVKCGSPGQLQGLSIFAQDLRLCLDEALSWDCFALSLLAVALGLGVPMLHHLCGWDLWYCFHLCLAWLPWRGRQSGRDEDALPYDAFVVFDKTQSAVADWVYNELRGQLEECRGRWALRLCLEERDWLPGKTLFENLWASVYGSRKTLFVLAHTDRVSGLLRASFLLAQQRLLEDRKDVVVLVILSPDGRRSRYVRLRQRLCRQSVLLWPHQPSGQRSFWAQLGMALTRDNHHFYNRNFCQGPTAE
Procedure, shortened: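 Dose–response from 0.05 nM to 50 μM was run in HEK-Blue human TLR7, TLR8 and TLR9 reporter cells. After 30 min at room temperature with compound, ligand was added (TLR7 gardiquimod 7.5 μM; TLR8 R848 15.9 μM; TLR9 ODN2006 5 nM) and SEAP measured next day, at 22 h.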

human TLR7 = target: T2, human TLR7 (Homo sapiens, UniProt Q9NYK1); test: TLR7 inhibition reporter assay (HEK-Blue SEAP); type: cell-based; conditions: HEK-Blue cells overexpressing human TLR7, gardiquimod 7.5 μM, 22 hour incubation
T2 construct: host or cells: HEK-Blue cells
T2 sequence (Q9NYK1 27-1049): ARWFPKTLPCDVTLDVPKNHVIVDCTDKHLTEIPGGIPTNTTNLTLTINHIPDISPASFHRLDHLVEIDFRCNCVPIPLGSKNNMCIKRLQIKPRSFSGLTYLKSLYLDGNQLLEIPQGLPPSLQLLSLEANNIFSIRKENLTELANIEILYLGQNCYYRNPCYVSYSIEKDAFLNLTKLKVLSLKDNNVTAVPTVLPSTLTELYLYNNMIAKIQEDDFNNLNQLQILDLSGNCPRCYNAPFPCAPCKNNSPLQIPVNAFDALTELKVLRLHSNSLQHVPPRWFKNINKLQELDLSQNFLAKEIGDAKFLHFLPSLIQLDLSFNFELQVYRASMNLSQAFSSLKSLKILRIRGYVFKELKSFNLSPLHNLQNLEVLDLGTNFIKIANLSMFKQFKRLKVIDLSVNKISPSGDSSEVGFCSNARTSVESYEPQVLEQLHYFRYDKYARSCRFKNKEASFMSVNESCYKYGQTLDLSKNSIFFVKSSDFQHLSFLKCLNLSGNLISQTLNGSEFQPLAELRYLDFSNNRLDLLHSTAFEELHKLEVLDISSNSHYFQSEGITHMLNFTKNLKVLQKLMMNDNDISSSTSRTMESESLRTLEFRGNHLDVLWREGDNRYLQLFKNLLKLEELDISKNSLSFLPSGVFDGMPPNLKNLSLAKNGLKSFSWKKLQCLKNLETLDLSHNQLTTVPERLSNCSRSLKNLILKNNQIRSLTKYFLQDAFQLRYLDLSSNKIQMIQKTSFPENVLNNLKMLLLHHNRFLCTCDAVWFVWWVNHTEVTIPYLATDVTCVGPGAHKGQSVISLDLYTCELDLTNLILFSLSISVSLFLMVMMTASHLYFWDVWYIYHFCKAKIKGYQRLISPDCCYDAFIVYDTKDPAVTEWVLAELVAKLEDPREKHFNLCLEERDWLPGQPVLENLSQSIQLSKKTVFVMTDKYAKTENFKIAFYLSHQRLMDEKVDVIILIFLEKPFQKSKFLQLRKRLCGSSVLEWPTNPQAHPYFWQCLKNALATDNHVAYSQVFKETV
Procedure, shortened: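 In this cell reporter format, test compounds at 0.05 nM-50 μM final incubate 22 h with seeded cells (TLR7 15000, TLR8 20,000 per well). SEAP read-out by HEK-Blue Detection medium yields % inhibition relative to agonist/DMSO and known-inhibitor wells.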

| IC50 (human TLR9) | IC50 (human TLR7) | SMILES |
| --- | --- | --- |
| 26300 nM | 31.8 nM | COc1cc(-c2cc3[nH]c(=O)n([C@H]4CCCN(C)C4)c3cc2C(C)C)cn2ncnc12 [Example 119, (S)-6-isopropyl-5-(8-methoxy-[1,2,4]triazolo[1,5-a]pyridin-6-yl)-1-(1-methylpiperidin-3-yl)-1,3-dihydro-2H-benzo[d]imidazol-2-one] |
| 7140 nM | 17.3 nM | COc1cc(-c2cc3[nH]c(=O)n([C@H]4CCCN(CC5CCC5)C4)c3cc2C(C)C)cn2ncnc12 [Example 133, (S)-1-(1-(cyclobutylmethyl)piperidin-3-yl)-6-isopropyl-5-(8-methoxy-[1,2,4]triazolo[1,5-a]pyridin-6-yl)-1,3-dihydro-2H-benzo[d]imidazol-2-one] |
| > 50000 nM | 26.3 nM | COc1cc(-c2cc3[nH]c(=O)n([C@@H]4CCCN(C5COC5)C4)c3cc2C(C)C)cn2ncnc12 [Example 135, (R)-6-isopropyl-5-(8-methoxy-[1,2,4]triazolo[1,5-a]pyridin-6-yl)-1-(1-(oxetan-3-yl)piperidin-3-yl)-1,3-dihydro-2H-benzo[d]imidazol-2-one] |
| 7720 nM | 34.1 nM | COc1cc(-c2cc3[nH]c(=O)n([C@H]4CCCN(CC5CCOCC5)C4)c3cc2C(C)C)cn2ncnc12 [Example 125, (S)-6-isopropyl-5-(8-methoxy-[1,2,4]triazolo[1,5-a]pyridin-6-yl)-1-(1-((tetrahydro-2H-pyran-4-yl)methyl)piperidin-3-yl)-1,3-dihydro-2H-benzo[d]imidazol-2-one] |
| 9610 nM | 0.49 nM | CCC(CC)CN1CCC[C@@H](n2c(=O)[nH]c3cc(-c4cc(OC)c5ncnn5c4)c(C(C)C)cc32)C1 [Example 148, (R)-1-(1-(2-ethylbutyl)piperidin-3-yl)-6-isopropyl-5-(8-methoxy-[1,2,4]triazolo[1,5-a]pyridin-6-yl)-1,3-dihydro-2H-benzo[d]imidazol-2-one] |
| 17900 nM | 2.73 nM | CCN1CCC[C@@H](n2c(=O)[nH]c3cc(-c4cc(OC)c5ncnn5c4)c(C(C)C)cc32)C1 [Example 138, (R)-1-(1-ethylpiperidin-3-yl)-6-isopropyl-5-(8-methoxy-[1,2,4]triazolo[1,5-a]pyridin-6-yl)-1,3-dihydro-2H-benzo[d]imidazol-2-one] |
| > 50000 nM | 182 nM | Cc1c(-c2cc3[nH]c(=O)n([C@@H]4CCCN(C5COC5)C4)c3cc2C(C)C)cn2ncnc2c1C [Example 146, (R)-5-(7,8-dimethyl-[1,2,4]triazolo[1,5-a]pyridin-6-yl)-6-isopropyl-1-(1-(oxetan-3-yl)piperidin-3-yl)-1,3-dihydro-2H-benzo[d]imidazol-2-one] |
| 12700 nM | 15.1 nM | COc1cc(-c2cc3[nH]c(=O)n([C@H]4CCCN(C5CCC5)C4)c3cc2C(C)C)cn2ncnc12 [Example 122, (S)-1-(1-cyclobutylpiperidin-3-yl)-6-isopropyl-5-(8-methoxy-[1,2,4]triazolo[1,5-a]pyridin-6-yl)-1,3-dihydro-2H-benzo[d]imidazol-2-one] |
| 9610 nM | 31.1 nM | CCC(CC)CN1CCC[C@H](n2c(=O)[nH]c3cc(-c4cc(OC)c5ncnn5c4)c(C(C)C)cc32)C1 [Example 130, (S)-1-(1-(2-ethylbutyl)piperidin-3-yl)-6-isopropyl-5-(8-methoxy-[1,2,4]triazolo[1,5-a]pyridin-6-yl)-1,3-dihydro-2H-benzo[d]imidazol-2-one] |
| 14300 nM | 3.7 nM | Cc1c(-c2cc3[nH]c(=O)n([C@@H]4CCCN(C(C)C)C4)c3cc2C(C)C)cn2ncnc2c1C [Example 145, (R)-5-(7,8-dimethyl-[1,2,4]triazolo[1,5-a]pyridin-6-yl)-6-isopropyl-1-(1-isopropylpiperidin-3-yl)-1,3-dihydro-2H-benzo[d]imidazol-2-one] |

The remaining lines, values behind:

| SMILES | IC50 (human TLR9) | IC50 (human TLR7) |
| --- | --- | --- |
| Cc1cc(-c2cc(C)c3ncnn3c2)cc2[nH]c(=O)n(C3CCN(C(C)C)CC3)c12 [Example 107, 1-(1-isopropylpiperidin-4-yl)-7-methyl-5-(8-methyl-[1,2,4]triazolo[1,5-a]pyridin-6-yl)-1,3-dihydro-2H-benzo[d]imidazol-2-one] | 2990 nM | 32.9 nM |
| COc1cc(-c2cc3[nH]c(=O)n(C4CCN(C5CCOCC5)CC4)c3cc2C(C)C)cn2ncnc12 [Example 158, 6-isopropyl-5-(8-methoxy-[1,2,4]triazolo[1,5-a]pyridin-6-yl)-1-(1-(tetrahydro-2H-pyran-4-yl)piperidin-4-yl)-1,3-dihydro-2H-benzo[d]imidazol-2-one] | 21400 nM | 11.2 nM |
| Cc1cc(-c2ccc3c(c2)[nH]c(=O)n3C2CCN(C)CC2)cn2ncnc12 [Example 4, 5-(8-methyl-[1,2,4]triazolo[1,5-a]pyridin-6-yl)-1-(1-methylpiperidin-4-yl)-1,3-dihydro-2H-benzo[d]imidazol-2-one] | 964 nM | 863 nM |
| CCN1CCC(n2c(=O)[nH]c3cc(-c4cc(C)c5ncnn5c4)cc(C)c32)CC1 [Example 108, 1-(1-ethylpiperidin-4-yl)-7-methyl-5-(8-methyl-[1,2,4]triazolo[1,5-a]pyridin-6-yl)-1,3-dihydro-2H-benzo[d]imidazol-2-one] | 1160 nM | 11.5 nM |
| COc1cc(-c2cc3[nH]c(=O)n([C@@H]4CCCN(C5COC5)C4)c3cc2C(F)(F)F)cn2ncnc12 [Example 113, (R)-5-(8-methoxy-[1,2,4]triazolo[1,5-a]pyridin-6-yl)-1-(1-(oxetan-3-yl)piperidin-3-yl)-6-(trifluoromethyl)-1,3-dihydro-2H-benzo[d]imidazol-2-one] | > 50000 nM | 488 nM |
| CCN1CCC(n2c(=O)[nH]c3cc(-c4cc(C)c5ncnn5c4)c(C)cc32)CC1 [Example 6, 1-(1-ethylpiperidin-4-yl)-6-methyl-5-(8-methyl-[1,2,4]triazolo[1,5-a]pyridin-6-yl)-1,3-dihydro-2H-benzo[d]imidazol-2-one] | 871 nM | 38.7 nM |
| COc1cc(-c2cc3[nH]c(=O)n([C@@H]4CCCN(CC(=O)N(C)C)C4)c3cc2C)cn2ncnc12 [Example 99, (R)-2-(3-(5-(8-methoxy-[1,2,4]triazolo[1,5-a]pyridin-6-yl)-6-methyl-2-oxo-2,3-dihydro-1H-benzo[d]imidazol-1-yl)piperidin-1-yl)-N,N-dimethylacetamide] | > 50000 nM | 391 nM |
